row,SMILES,melting point [°C]
1,O=C(O)C=CC=CCCCCCc1cccc2cncn12,120 to 122
2,CC(C)(C)OC(=O)N1C(=O)[C@H]2C=C[C@@H]1C2,70.5 to 71.5
3,CCOC(=O)N1CCN(c2ccc(C3=NNC(=O)CC3C)cc2F)CC1 (centres undefined),193 to 194
4,CC(C)(C)OC(=O)N1C[C@@H](CC(=O)C(=[N+]=[N-])C(=O)OCc2ccc([N+](=O)[O-])cc2)[C@H]2NC(=O)[C@H]21,132 to 134
5,CNc1nc(-c2cccc([N+](=O)[O-])c2)c2cc(OC)c(OC)cc2n1,218 to 220
6,CN(C)c1cccc(-n2cc(C(=O)NC(=N)N)c3cccnc32)c1,269 to 271
7,O=S(CCO)Cc1cccnc1 (centres undefined),84 to 86
8,N=C(N)NCCOc1ccc2c(c1)NC(=O)C(CCC(=O)O)C2 (centres undefined),193 to 196
9,Cc1cc(CCCOc2c(Cl)cc(C(=O)O)cc2Cl)on1,156 to 157
10,Cc1nc(C)c(-c2ccnc(Nc3cccnc3)n2)s1,159 to 162
11,COC(=O)CC1(C)CCc2cc(C#N)ccc2C1=O (centres undefined),117
12,COC(=O)Cc1c(F)cccc1Cl,79 to 80
13,COc1ccccc1-n1c(=O)[nH]c2c(C(N)=O)nc(N[C@H]3CC[C@H](O)CC3)nc21,165 to 167
14,O=C(O)C(=Cc1ccco1)SSC(=Cc1ccco1)C(=O)O,215
15,CCOC(=O)c1c[nH]c2cc(OC)c(OC)cc2c1=O,275 to 285
16,COc1ccc2cc(CCCOCCCCCCNCC(O)c3ccc(O)c(NS(C)(=O)=O)c3)ccc2c1 (centres undefined),87 to 89
17,CNc1nc(NS(=O)(=O)c2ccc(N)cc2)cc(N2CCCC2)n1,> 300
18,CCOCc1nc2c(N)nc3c(c2n1NCCCNC(=O)N1CCOCC1)CCCC3,152 to 154
19,O=[N+]([O-])c1ccc(C2(Cn3cncn3)OCCO2)cc1,160
20,O=c1n(-c2ccc(Cl)c(Cl)c2)c(=O)n(SC(Cl)(Cl)Cl)n1SC(Cl)(Cl)Cl,167
21,C[C@H](CN1CC=C(c2cccs2)CC1)Nc1ccccn1,63 to 68
22,CC[C@@H](COC)n1cc(Cl)nc(N2CCc3cc(Br)cc(Cl)c32)c1=O,121 to 122

row,SMILES,melting point [°C]
1,COC(=O)c1cscc1NC(=O)COc1ccc(I)cc1,135 to 137
2,COc1ccc(N2CCOCC2)c2sc(NC(=O)NC3CCCC3)nc12,191 to 194
3,C/C(=C(\C#N)C(N)=S)N1CCCN(c2cccc([N+](=O)[O-])c2)CC1,157 to 158
4,CC(C)(C)C(=O)c1oc(N)nc1C(C)(C)C,248 to 250
5,CCCCCCCCCCCCCCCCCc1nnc(CO)n1-c1sc(CC)cc1C(=O)c1ccc(C)cc1,68 to 69
6,N=C(N)c1ccc(N2CCC(N3CCN(CCC(=O)O)C3=O)CC2)cc1,> 275
7,CCCc1nc2c(N)nc3ccccc3c2n1CCOCCCSC,99 to 101
8,C=CC1(C)OC(=O)c2ccc(Oc3ccc(C(F)(F)F)cc3Cl)cc21 (centres undefined),71 to 73
9,CCOC(=O)c1ccc(NC(=O)C=C(C)c2ccc(Cl)c(Cl)c2)cc1,149 to 150
10,COc1cc(OC)nc(Sc2sccc2NC(=O)C(F)(F)F)n1,88 to 90
11,O=C(Nc1ccc(N2CCOCC2)cc1)Nc1ccc(C(F)(F)F)cc1,228 to 232
12,Brc1ccc(C2(c3ccccc3)OCCO2)cc1,54 to 56
13,O=C(Nc1ccc(OC(F)(F)F)cc1)NC1CCN(C(=O)c2cc(O)c(O)c(O)c2)CC1,168 to 175
14,CCOC(=O)c1cn(C2COC2)c2c(OC)c(F)c(F)cc2c1=O,195 to 198
15,COCc1cc(Cl)ncn1,34 to 36
16,COc1c(Cl)ccc(-c2nc(C(=O)OC(C)C)cc(N)c2F)c1F,177 to 179
17,CCc1csc2ccc3[nH]c4c(c3c12)CN(C)CC4,181 to 182
18,COC(=O)c1ccc(C(=O)C(=O)c2ccc3c(c2)C(C)(C)CCC3(C)C)cc1,93 to 96
19,CC(C)CCCC(C)C1CC=C2C3=C(CCC21C)C1(C)CCC(C(=O)c2ccncc2)CC1CC3 (centres undefined),129 to 131
20,Nc1ccc(C2Oc3cc4c(cc3O2)CC2COC(=O)N2N=C4)cc1 (centres undefined),173 to 175
21,NC(=O)c1cnc2cc(F)c(F)cc2c1,261
22,CC1(C)CCC(C)(C)c2cc(-c3ccc(O)cc3)ccc21,137 to 140

# The remaining lines, values ahead:
row,melting point [°C],SMILES
1,191 to 193,O=C(Nc1ccc(Cl)nc1)C1=NN(c2ccc(Cl)cc2)C(c2ccc(F)cc2)C1 (centres undefined)
2,157 to 158,CSc1ccc(-c2nn(Cc3ccccc3)c(=O)cc2-c2ccccc2)cc1
3,156 to 157,C#Cc1cn(C2CC(O)C(CO)O2)c(=O)n(C(=O)c2ccccc2)c1=O (centres undefined)
4,156 to 162,COC(=O)c1ccc2c(c1)ncn2Cc1ccccc1
5,75 to 76,C(=C\c1nc(COc2cccc(CCCCn3ccnc3)c2)co1)/c1ccccc1
6,201,O=C(O)Cc1coc2cc(OCc3cc(-c4ccc(C(F)(F)F)cc4)on3)ccc12
7,131 to 132,CCON1CCC(NC(=O)Cc2c(C)cc(C)cc2C)(C(=O)OC)CC1
8,170 to 172,CN(c1cccc2cc(C3=NCC(CC(=O)O)S3)[nH]c12)S(=O)(=O)c1ccccc1C(F)(F)F (centres undefined)
9,99 to 100,c1ccc(N(Cc2ccc(OCOc3ccc(CN(c4ccccc4)c4ccccc4)cc3)cc2)c2ccccc2)cc1
10,187,O=C1OC(=Cc2ccccc2)c2ccc(-c3ccccc3)cc21
11,158 to 160,COc1ccc(CCOc2ccc(NC(=O)c3cc(F)cc(N4CCCCC4)c3)c3ccccc23)cc1OC
12,258,NS(=O)(=O)c1cccc(-c2cc(-c3nc(-c4ccc(C(F)(F)F)nc4)cc(C(F)(F)F)n3)ccn2)c1
13,112,Cc1ccc(CC(C(=O)C(Cc2ccc(C)cc2C)N2C(=O)c3ccccc3C2=O)N2C(=O)c3ccccc3C2=O)c(C)c1 (centres undefined)
14,149 to 151,CNC(=O)C(=NOC)c1ccccc1COc1ccc2c(c1)OCC2=O
15,268 to 270,Cc1cc(C)n(-c2nc(Nc3ccc(-c4ccccc4)cc3)c3ccccc3n2)n1
16,154 to 157,Cc1cc(C)cc(C(=O)c2c(-c3ccc(OCC(O)CNC(C)C)cc3)oc3ccccc23)c1 (centres undefined)
17,189 to 190,CCCC(=O)c1ccc(C(CC(=O)Nc2cc(C(N)=O)ccc2C(C)(C)C)CC(C)C)c(OC)c1 (centres undefined)
18,183 to 185,Cc1ncc([N+](=O)[O-])n1CCN1C(=O)C2c3cccc4cccc(c34)C2C1=O (centres undefined)
19,159 to 161,CCN(C)C(=O)Nc1c(C(=O)c2ccccc2)[nH]c2cc(Cl)ccc12
20,160 to 162,Cc1ccccc1C=Nc1c2c(nc3ccccc13)CCCC2
21,190 to 192,COc1ccc(COc2c(O)cc3c(c2Cl)CCN(C(=O)OC(C)(C)C)CC3c2ccc(O)cc2)cc1 (centres undefined)
22,136 to 137,COc1cc2c(cc1O)CCCN(Cc1ccccc1OC)C2
23,183 to 184,COc1cccc(-n2c(=O)c3c(c4cccnc42)OC(COC(C)=O)C3)c1 (centres undefined)
24,99 to 105,CC(C)(C)OC(=O)NC(C)(C)c1ccc(-c2ccc3nn(C4CCCCO4)cc3c2-c2cc[nH]n2)cc1 (centres undefined)
25,68 to 69,O=C1CC(=Cc2c[nH]c3ccccc23)C(=O)N1Cc1cc(C(F)(F)F)cc(C(F)(F)F)c1

# — a melting point compilation (Tetko et al.; mined from patent text by program, amines drawn as free bases though some values may be those of a salt)
